Reference: US7662856B2, “Compositions having antimycrobial activity including a hydroxamate or a hydroxamate and a hydroxlyamine” (The University of Houston System, priority 2003, dated 2010)
Converted amounts (≈) assume the structure as drawn. Read-outs that look alike come from different tables or passages of the source.

Columns and labels:
E. Coli = assay: microbe, parasite or virus in culture; assay type: cell-based
M. tuberculosis [1] = assay type: cell-based
S. aureus = assay: microbe, parasite or virus in culture; assay type: cell-based
[2] = target: alanine racemase enzyme from P. aeruginosa (Pseudomonas aeruginosa, UniProt Q9HTQ2, A178S/N326M/S138R/S262R); assay: biochemical; conditions: for inhibition at 2500 µM: read-out: In % (percent inhibition of alanine racemase)
M. tuberculosis [3] = assay: microbe, parasite or virus in culture; assay type: cell-based
[4] = target: T1, alanine racemase enzyme from S. aureus (Staphylococcus aureus, UniProt P63479); assay: biochemical; conditions: for inhibition at 2500 µM: read-out: In % (percent inhibition of alanine racemase)
T1 sequence (P63479 1-382): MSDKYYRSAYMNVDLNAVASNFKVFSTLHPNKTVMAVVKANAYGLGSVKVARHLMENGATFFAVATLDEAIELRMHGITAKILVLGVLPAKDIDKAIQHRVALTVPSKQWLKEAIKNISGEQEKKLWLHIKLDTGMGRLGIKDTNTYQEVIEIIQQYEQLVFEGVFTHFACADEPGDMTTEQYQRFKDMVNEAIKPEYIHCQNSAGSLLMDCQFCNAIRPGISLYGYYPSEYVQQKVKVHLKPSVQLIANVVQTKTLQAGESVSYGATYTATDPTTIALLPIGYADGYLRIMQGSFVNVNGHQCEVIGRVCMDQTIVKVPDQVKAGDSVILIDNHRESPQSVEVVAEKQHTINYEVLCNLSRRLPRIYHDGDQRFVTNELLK

[5] = target: alanine racemase enzyme from E. Coli (Escherichia coli, UniProt P0A6B4); assay: biochemical; conditions: for inhibition at 2500 µM: read-out: In % (percent inhibition of alanine racemase)
[6] = target: alanine racemase enzyme from M. tuberculosis (Mycobacterium tuberculosis, UniProt P9WQA9, DEL103-104); assay type: biochemical
[7] = Escherichia coli, read-out: MIC
[8] = TB Assay of Hydroxamate Candidates, DMSO control 7, Water control 8
[9] = Staphylococcus aureus, read-out: MIC
[10] = P. aeruginosa ALR, % Inhibition at 2.5 mM
[11] = P. aeruginosa ALR, read-out: Ki
[12] = Mycobacterium tuberculosis, MGIT Assay, read-out: MIC
[13] = S. aureus ALR, % Inhibition at 2.5 mM
[14] = E. Coli ALR, % Inhibition at 2.5 mM

Chain of alanine racemase enzyme from E. Coli (P0A6B4 whole entry): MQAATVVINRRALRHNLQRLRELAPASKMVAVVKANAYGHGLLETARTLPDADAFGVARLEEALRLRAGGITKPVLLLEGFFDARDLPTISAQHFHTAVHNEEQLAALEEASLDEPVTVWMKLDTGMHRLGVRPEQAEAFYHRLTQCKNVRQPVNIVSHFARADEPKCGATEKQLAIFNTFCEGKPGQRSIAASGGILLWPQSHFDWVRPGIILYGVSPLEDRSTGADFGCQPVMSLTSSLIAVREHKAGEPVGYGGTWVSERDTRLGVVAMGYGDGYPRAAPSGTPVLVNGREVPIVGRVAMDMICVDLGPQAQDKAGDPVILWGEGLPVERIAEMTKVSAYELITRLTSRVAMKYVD
Chain of alanine racemase enzyme from P. aeruginosa (Q9HTQ2 whole entry S138R/A178S/S262R/N326M): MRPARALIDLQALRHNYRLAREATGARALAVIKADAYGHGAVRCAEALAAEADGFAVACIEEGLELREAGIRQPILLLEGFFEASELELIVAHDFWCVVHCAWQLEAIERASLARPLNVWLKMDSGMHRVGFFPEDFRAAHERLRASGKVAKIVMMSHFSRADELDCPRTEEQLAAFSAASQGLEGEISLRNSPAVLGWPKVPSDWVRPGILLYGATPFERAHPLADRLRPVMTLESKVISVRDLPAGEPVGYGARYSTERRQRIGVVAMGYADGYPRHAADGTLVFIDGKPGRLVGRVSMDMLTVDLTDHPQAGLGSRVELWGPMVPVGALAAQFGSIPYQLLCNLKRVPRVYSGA
Chain of alanine racemase enzyme from M. tuberculosis (P9WQA9 whole entry, looked up, stated change not applied): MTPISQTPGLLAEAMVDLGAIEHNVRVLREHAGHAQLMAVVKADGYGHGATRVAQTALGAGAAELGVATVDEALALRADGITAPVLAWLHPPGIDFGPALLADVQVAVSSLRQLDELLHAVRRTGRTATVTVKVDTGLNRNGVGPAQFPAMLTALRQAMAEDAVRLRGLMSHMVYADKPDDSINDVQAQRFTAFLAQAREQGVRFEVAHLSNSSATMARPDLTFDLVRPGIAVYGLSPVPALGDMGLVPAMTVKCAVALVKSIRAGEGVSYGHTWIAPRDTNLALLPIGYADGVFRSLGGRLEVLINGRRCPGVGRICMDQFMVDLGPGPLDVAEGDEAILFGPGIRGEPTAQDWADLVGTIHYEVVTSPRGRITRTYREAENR

CONC(=O)CN.O=C(O)C(F)(F)F [TFA•H2NCH2C(O)NHOCH3, O-Methylglycine Hydroxamic Acid Trifluoroacetic Acid]
MIC (E. Coli; [7]): > 5 mM
Days of Detection (M. tuberculosis [1]; [8]): >40 days
MIC (S. aureus; [9]): > 5 mM
inhibition at 2500 µM [2, 10]: 55%
Ki [2, 11]: 1510 µM
MIC (M. tuberculosis [3]; [12]): 50 µg/mL
inhibition at 2500 µM [4, 13]: 47%
Ki ([4]; S. aureus ALR, read-out: Ki): 1850 µM
inhibition at 2500 µM [5, 14]: 67%
Ki ([5]; E. Coli ALR, read-out: Ki): 1340 µM
% In in TB-ALR-assay [6]: 66%
In % (percent inhibition of alanine racemase) [6]: 66%

CNCC(=O)NO [CH3NHCH2C(O)NHOH, Sarcosine Hydroxamic Acid]
MIC (E. Coli; Escherichia coli): > 5 mM
melting point: 140 to 141 °C
Days of Detection (M. tuberculosis [1]): 32.5 days
MIC (S. aureus; Staphylococcus aureus): > 5 mM
Ki ([2]; Ki): 18200 µM
inhibition at 2500 µM [2]: 24 ± 5%
MIC (M. tuberculosis [3]; Mycobacterium tuberculosis): 200 µg/mL (≈ 1920 µM)
Ki ([4]; S. aureus ALR, read-out: Ki): 14300 µM
inhibition at 2500 µM [4]: 28 ± 5%
Ki ([5]; Ki): 5700 µM
inhibition at 2500 µM [5]: 34 ± 12%
% In in TB-ALR-assay [6]: 81%
In % (percent inhibition of alanine racemase) [6]: 81 ± 7%

NC(=O)OCC(N)C(=O)NO (centres unmarked) [H2NCH(CH2OCONH2)C(O)NILIOH]
MIC (E. Coli; [7]): > 5 mM
MIC (S. aureus; [9]): > 5 mM
inhibition at 2500 µM [2, 10]: 94 ± 5%
Ki [2, 11]: 30 µM
inhibition at 2500 µM [4, 13]: 93 ± 4%
Ki ([4]; S. aureus ALR, read-out: Ki): 56 µM
inhibition at 2500 µM [5, 14]: 96 ± 8%
Ki ([5]; E. Coli ALR, read-out: Ki): 8 µM
In % (percent inhibition of alanine racemase) [6]: 97 ± 5%

C[C@H](N)C(=O)NO.Cl [HCl•H2NCH(CH3)C(O)NHOH*, L-Alanine Hydroxamic Acid Hydrochloride]
MIC (E. Coli; Escherichia coli): > 5 mM
melting point: 178 to 180 °C
MIC (S. aureus; Staphylococcus aureus): > 5 mM
Ki ([2]; Ki): 1060 µM
inhibition at 2500 µM [2]: 33 ± 2%
Ki ([4]; Ki): 1300 µM
inhibition at 2500 µM [4]: 32 ± 8%
Ki ([5]; Ki): 2780 µM
inhibition at 2500 µM [5]: 39 ± 8%

Cl.NCCC(=O)NO [HCl•H2NCH2CH2C(O)NHOH, β-Alanine Hydroxamic Acid Hydrochloride]
MIC (E. Coli; Escherichia coli): > 5 mM
melting point: 140 to 142 °C
Days of Detection (M. tuberculosis [1]): 8.5 days
MIC (S. aureus; Staphylococcus aureus): > 5 mM
Ki ([2]; Ki): 894 µM
inhibition at 2500 µM [2]: 34 ± 9%
MIC (M. tuberculosis [3]; Mycobacterium tuberculosis): > 200 µg/mL
Ki ([4]; Ki): 401 µM
inhibition at 2500 µM [4]: 49 ± 12%
Ki ([5]; Ki): 1210 µM
inhibition at 2500 µM [5]: 37 ± 10%
% In in TB-ALR-assay [6]: 79%
In % (percent inhibition of alanine racemase) [6]: 79 ± 12%

N[C@@H]1CON=C1O [D-cycloserine, reference compound]
Days of Detection (M. tuberculosis [1]; [8]): >40 days
MIC (S. aureus; [9]): 0.2 mM (≈ 20.4 µg/mL)
inhibition at 2500 µM [2, 10]: 95%
Ki [2, 11]: 10 µM
MIC (M. tuberculosis [3]; [12]): < 12.5 µg/mL
inhibition at 2500 µM [4, 13]: 94%
Ki ([4]; S. aureus ALR, read-out: Ki): 10 µM
inhibition at 2500 µM [5, 14]: 93%
Ki ([5]; E. Coli ALR, read-out: Ki): 10 µM
% In in TB-ALR-assay [6]: 96%
In % (percent inhibition of alanine racemase) [6]: 93%

N-Benzylglycine Hydroxamic Acid [PhCH2NHCH2C(O)NHOH]
MIC (E. Coli): >5 mM
Days of Detection (M. tuberculosis [1]; [8]): 18.5 days
MIC (S. aureus): >5 mM
In % (percent inhibition of alanine racemase) [2, 10]: 39 ± 9%
Ki [2, 11]: 1240 µM
MIC (M. tuberculosis [3]; MGIT Assay): 50 µg/mL
In % (percent inhibition of alanine racemase) [4, 13]: 53 ± 13%
Ki ([4]; S. aureus ALR, read-out: Ki): 1980 µM
In % (percent inhibition of alanine racemase) [5, 14]: 0.58 ± 3%
Ki ([5]; E. Coli ALR, read-out: Ki): 1840 µM
% In in TB-ALR-assay [6]: 88%
In % (percent inhibition of alanine racemase) [6]: 88 ± 3%
Ki [6]: 519 µM

NC(=O)C(=O)NO [H2NC(O)C(O)NHOH, N-Hydroxyoxalamide]
MIC (E. Coli; [7]): > 5 mM
Days of Detection (M. tuberculosis [1]; [8]): 32 days
MIC (S. aureus; [9]): > 5 mM
inhibition at 2500 µM [2, 10]: 99 ± 4%
Ki [2, 11]: 16 µM
MIC (M. tuberculosis [3]; [12]): 50 µg/mL (≈ 480 µM)
inhibition at 2500 µM [4, 13]: 97%
Ki ([4]; S. aureus ALR, read-out: Ki): 17 µM
inhibition at 2500 µM [5, 14]: 97 ± 4%
Ki ([5]; E. Coli ALR, read-out: Ki): 52 µM
% In in TB-ALR-assay [6]: 93%
In % (percent inhibition of alanine racemase) [6]: 93 ± 8%
